# Laboratory results published in patent US20230240994A1, “MEDICAMENT-CONTAINING HOLLOW PARTICLE” (Sumitomo Pharma Co., Ltd., priority 2012, published 2023).
# Where a name gives a salt, the structure may show the parent alone.
# Test: Particle size distribution by laser diffraction particle size analyzer (volume basis)
# Format: physicochemical
# Protocol: In the present invention, the “average particle size” means cumulative 50% particle size D50 in the volume based measurement of powder particles. Such average particle size is measured by a laser diffraction particle size analyzer (e.g., Particle Viewer manufactured by POWREX CORPORATION, or SALD-3000J manufactured by Shimadzu Corporation, or HELOS&RODOS manufactured by Sympatec GmbH) by volume basis.
# The particle size distribution of medicament, polymer, other additive, a mixed powder of the medicament and other additive, and the obtained medicament-containing particle was measured by a laser diffraction particle size analyzer (manufactured by POWREX CORPORATION, Particle Viewer) or laser diffraction particle size analyzer (manufactured by Shimadzu Corporation, SAID-3000J) by volume basis.
# [1] = medicament used (raw material), laser diffraction SALD-3000J
# [2] = micronized product of Compound A used in Comparative Example 3-2
# [3] = starting material as used (medicament, polymer, other additive, mixed powder), volume basis
particle size distribution D10 [1] [μm],particle size distribution D50 [1] [μm],particle size distribution D90 [1] [μm],particle size distribution D10 [2] [μm],particle size distribution D50 [2] [μm],particle size distribution D90 [2] [μm],particle size distribution D10 [3] [μm],particle size distribution D50 [3] [μm],particle size distribution D90 [3] [μm],SMILES
–,–,–,–,–,–,1.3,4.6,12.7,"Nc1ccc(O)c(C(=O)O)c1 [Compound D, 5-amino-2-hydroxybenzoic acid, reference compound]"
–,–,–,–,–,–,0.6,2.5,5.0,"COc1cccc(-c2nccc3[nH]c(=O)c(-c4noc(C)n4)cc23)c1 [Compound F, 5-(3-methoxyphenyl)-3-(5-methyl-1,2,4-oxadiazol-3-yl)-2-oxo-1,2-dihydro-1,6-naphthyridine]"
–,–,–,–,–,–,0.8,3.1,8.1,"COc1ccc2c(c1)c(CC(=O)O)c(C)n2C(=O)c1ccc(Cl)cc1 [Compound G, 1-(4-chlorobenzoyl)-5-methoxy-2-methyl-1-H-indole-3-acetic acid, reference compound]"
–,–,–,–,–,–,2.8,11.6,46.1,"CC(=O)Nc1ccc(O)cc1 [acetaminophen, reference compound]"
–,–,–,–,–,–,2.3,9.2,30.6,"CCOc1cc(N)c(Cl)cc1C(=O)NCC1CN(Cc2ccc(F)cc2)CCO1 (stereo not drawn) [mosapride citrate, reference compound]"

# More lines, now with the values behind:
SMILES,particle size distribution D10 [1] [μm],particle size distribution D50 [1] [μm],particle size distribution D90 [1] [μm],particle size distribution D10 [2] [μm],particle size distribution D50 [2] [μm],particle size distribution D90 [2] [μm],particle size distribution D10 [3] [μm],particle size distribution D50 [3] [μm],particle size distribution D90 [3] [μm]
NS(=O)(=O)Cc1noc2ccccc12 [Compound A (D50: 2.7 μm)],0.7,2.7,5.6,–,–,–,–,–,–
NS(=O)(=O)Cc1noc2ccccc12 [Compound A (D50: 6.9 μm)],1.0,6.9,26.8,–,–,–,–,–,–
NS(=O)(=O)Cc1noc2ccccc12 [Compound A (D50: 9.9 μm)],1.2,9.9,42.9,–,–,–,–,–,–
"NS(=O)(=O)Cc1noc2ccccc12 [Compound A, 1,2-benzisoxazole-3-methanesulfonamide, reference compound]",0.7,2.7,5.6,3.2,13.3,40.8,0.7,2.7,5.6
"Cl.O=C1[C@@H]2[C@H]3CC[C@H](C3)[C@@H]2C(=O)N1C[C@@H]1CCCC[C@H]1CN1CCN(c2nsc3ccccc23)CC1 [Compound B, (3aR,4S,7R,7aS)-2-{(1R,2R)-2-[4-(1,2-benzisothiazol-3-yl)piperazin-1-ylmethyl]cyclohexylmethyl}hexahydro-4,7-methano-2H-isoindole-1,3-dione hydrochloride, reference compound]",–,–,–,–,–,–,0.5,1.5,3.3
"C[C@@H](c1ccc(-c2ccccc2)c(F)c1)c1cc(N=C(N)N2CCOCC2)on1 [Compound E, 3-[(1S)-1-(2-fluorobiphenyl-4-yl)ethyl]-5-{[amino(morpholin-4-yl)methylene]amino}isoxazole]",–,–,–,–,–,–,1.3,3.2,6.3
"OC[C@@H](O)[C@@H](O)[C@H](O)[C@H](O)CO [D-mannitol (JM pulverized product), D-mannitol]",–,–,–,–,–,–,0.5,2.0,4.2
"OC[C@@H](O)[C@@H](O)[C@H](O)[C@H](O)CO [D-mannitol (PEARLITOL 50C), D-mannitol]",–,–,–,–,–,–,6.9,47.0,125.2
"OC[C@H]1O[C@@H](O[C@H]2[C@H](O)[C@@H](O)C(O)O[C@@H]2CO)[C@H](O)[C@@H](O)[C@H]1O (stereo partly drawn) [lactose (Pharmatose 200M), lactose]",–,–,–,–,–,–,4.0,48.7,129.0
"O=C([O-])[O-].[Mg+2] [magnesium carbonate (light), magnesium carbonate]",–,–,–,–,–,–,0.9,4.0,10.6
